The values that follow come from patent US9309242B2, “Substituted pyrido[2,3-b]pyrazines as FGFR kinase inhibitors” (priority 2011, dated 2016).

For data set [1], the system named is Ba/F3-FGFR3-transfected cells. The data set can be described thus: Ba/F3-FGFR3 (plus IL3) cellular proliferation assay, counterscreen with 10 ng/ml murine IL3. It is filed as cell-based. Particulars: plus IL3 (10 ng/ml murine IL3, counterscreen); for IC50: read-out: BAF3-FGFR3 (PLUS IL3) pIC50 (converted). The essentials: (§1)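 Ba/F3 cells transfected with FGFR3 were seeded at 20000 cells/well in phenol red-free RPMI-1640 with 10% FBS over compound in DMSO and kept 24 hours at 37° C, 5% CO2. Alamar Blue (resazurin) was then added for 4 hours and fluorescence read at ex 540/em 590 nm. The counterscreen repeated this with 10 ng/ml murine IL3.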
Background: A counterscreen serves to expose hits that act by an unwanted route or on another target.

Data set [2] addresses FGFR4 (h) (Homo sapiens, UniProt P22455). Description: FGFR4 (enzymatic assay), TR-FRET. It is filed as biochemical. The conditions noted are these: FGFR 4 pIC50, enzymatic assay; average values if tested multiple times. (In TR-FRET formats the signal depends on donor and acceptor labels being close together.)
Data set [3] deals with KDR (h) (Homo sapiens, UniProt P35968). The data set can be described thus: KDR (VEGFR2) (enzymatic assay), TR-FRET. The conditions noted are these: read-out: VEGFR 2 (KDR) pIC50 (converted). It is filed as biochemical. The method, boiled down: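 Enzyme at 150 ng/ml was incubated 120 min at room temperature with 500 nM Btn-Flt3 peptide and 3 μM ATP in 50 mM HEPES pH 7.5, 6 mM MnCl2, 1 mM DTT, 0.1 mM Na3VO4, 0.01% Triton-X-100, 1% DMSO final. EDTA stop with Eu-anti-P-Tyr/SA-XL-665, 60 min; TR-FRET read in RFU.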
Chain of KDR (h) (P35968 20-1356): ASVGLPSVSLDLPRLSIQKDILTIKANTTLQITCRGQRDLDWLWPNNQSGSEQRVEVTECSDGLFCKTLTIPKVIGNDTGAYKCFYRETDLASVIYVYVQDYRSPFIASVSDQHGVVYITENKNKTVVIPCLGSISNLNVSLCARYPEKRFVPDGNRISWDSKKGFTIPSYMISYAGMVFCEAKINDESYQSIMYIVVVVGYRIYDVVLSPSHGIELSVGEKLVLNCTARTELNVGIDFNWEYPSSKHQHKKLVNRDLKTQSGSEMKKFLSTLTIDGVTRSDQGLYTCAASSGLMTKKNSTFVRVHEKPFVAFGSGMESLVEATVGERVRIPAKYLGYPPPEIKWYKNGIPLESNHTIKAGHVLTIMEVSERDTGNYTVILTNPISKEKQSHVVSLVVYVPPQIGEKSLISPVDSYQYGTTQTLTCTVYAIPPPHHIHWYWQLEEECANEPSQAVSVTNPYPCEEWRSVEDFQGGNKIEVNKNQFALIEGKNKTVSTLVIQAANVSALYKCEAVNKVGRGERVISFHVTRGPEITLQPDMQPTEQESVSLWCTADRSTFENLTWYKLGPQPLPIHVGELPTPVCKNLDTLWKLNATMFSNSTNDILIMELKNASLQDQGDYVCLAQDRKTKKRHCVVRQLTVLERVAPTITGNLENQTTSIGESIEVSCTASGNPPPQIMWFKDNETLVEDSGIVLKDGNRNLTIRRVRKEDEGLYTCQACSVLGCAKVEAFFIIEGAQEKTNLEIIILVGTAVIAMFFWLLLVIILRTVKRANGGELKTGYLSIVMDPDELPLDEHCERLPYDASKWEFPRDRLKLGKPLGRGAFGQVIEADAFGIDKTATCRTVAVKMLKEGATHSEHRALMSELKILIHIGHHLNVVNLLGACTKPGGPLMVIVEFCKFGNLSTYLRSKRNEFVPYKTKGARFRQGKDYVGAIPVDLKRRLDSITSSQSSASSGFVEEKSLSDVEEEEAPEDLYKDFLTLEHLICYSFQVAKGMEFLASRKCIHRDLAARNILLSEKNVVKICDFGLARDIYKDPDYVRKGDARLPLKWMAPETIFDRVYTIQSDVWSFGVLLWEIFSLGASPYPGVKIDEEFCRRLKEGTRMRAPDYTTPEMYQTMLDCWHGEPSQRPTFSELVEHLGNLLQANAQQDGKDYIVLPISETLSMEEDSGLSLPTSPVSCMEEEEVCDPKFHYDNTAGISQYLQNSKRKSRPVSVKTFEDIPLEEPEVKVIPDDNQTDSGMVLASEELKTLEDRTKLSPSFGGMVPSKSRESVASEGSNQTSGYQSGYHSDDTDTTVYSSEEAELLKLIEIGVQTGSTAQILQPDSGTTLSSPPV

Data set [4] relates to Ba/F3-FGFR1-transfected cells. The data set can be described thus: Ba/F3-FGFR1 (plus IL3) cellular proliferation assay, counterscreen with 10 ng/ml murine IL3. The conditions noted are these: plus IL3 (10 ng/ml murine IL3, counterscreen); for IC50: read-out: BAF3-FGFR1 (PLUS IL3) pIC50 (converted). It is filed as cell-based. The essentials: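 Ba/F3-FGFR1 cells (20000/well) in RPMI-1640 with 10% FBS exposed to compound for 24 h at 37° C., 5% CO2, then Alamar Blue (resazurin) added for 4 h; fluorescence read at ex 540/em 590 nm. Counterscreen run identically with 10 ng/ml murine IL3.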

Data set [5] deals with T1, Ba/F3-KDR-transfected cells (Homo sapiens, UniProt P35968).
T1 construct: BAF3-KDR (MIN IL3) pIC50; other: minus IL3
T1 sequence (P35968 whole entry, change not shown): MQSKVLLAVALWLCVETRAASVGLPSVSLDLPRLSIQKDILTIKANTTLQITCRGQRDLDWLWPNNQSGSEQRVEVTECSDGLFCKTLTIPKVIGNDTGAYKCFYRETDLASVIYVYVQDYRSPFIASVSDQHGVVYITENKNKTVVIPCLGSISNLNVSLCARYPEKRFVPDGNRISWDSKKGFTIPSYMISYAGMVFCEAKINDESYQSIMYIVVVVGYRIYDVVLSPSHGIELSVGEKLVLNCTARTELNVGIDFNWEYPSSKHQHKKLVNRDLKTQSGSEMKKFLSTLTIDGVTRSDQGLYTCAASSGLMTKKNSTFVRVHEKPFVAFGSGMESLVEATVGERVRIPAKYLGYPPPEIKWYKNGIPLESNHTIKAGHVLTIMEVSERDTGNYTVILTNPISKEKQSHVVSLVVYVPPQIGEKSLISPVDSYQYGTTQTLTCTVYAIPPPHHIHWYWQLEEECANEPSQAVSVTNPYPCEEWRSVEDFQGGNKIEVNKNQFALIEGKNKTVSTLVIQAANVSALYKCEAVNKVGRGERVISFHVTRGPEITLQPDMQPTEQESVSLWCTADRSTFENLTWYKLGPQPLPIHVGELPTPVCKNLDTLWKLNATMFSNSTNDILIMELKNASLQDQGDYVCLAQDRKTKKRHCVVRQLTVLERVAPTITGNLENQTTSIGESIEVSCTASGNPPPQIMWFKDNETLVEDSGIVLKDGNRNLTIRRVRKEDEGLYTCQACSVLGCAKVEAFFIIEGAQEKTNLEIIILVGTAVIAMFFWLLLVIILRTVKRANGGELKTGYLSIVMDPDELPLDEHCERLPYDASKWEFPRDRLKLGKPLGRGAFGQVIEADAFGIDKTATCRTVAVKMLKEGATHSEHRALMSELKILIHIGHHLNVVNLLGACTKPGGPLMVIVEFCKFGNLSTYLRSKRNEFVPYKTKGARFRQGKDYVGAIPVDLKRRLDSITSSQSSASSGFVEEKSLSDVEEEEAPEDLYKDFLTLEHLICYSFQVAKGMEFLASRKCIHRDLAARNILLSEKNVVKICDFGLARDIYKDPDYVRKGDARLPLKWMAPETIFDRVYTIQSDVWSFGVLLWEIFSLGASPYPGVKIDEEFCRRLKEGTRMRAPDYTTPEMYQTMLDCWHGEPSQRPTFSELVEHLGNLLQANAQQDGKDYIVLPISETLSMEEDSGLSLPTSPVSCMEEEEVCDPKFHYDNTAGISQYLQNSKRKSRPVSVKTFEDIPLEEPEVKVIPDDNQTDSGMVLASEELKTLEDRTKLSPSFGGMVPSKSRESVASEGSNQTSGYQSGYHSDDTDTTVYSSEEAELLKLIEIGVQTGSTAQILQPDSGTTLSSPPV
Description: Ba/F3-KDR (minus IL3) cellular proliferation assay, Alamar Blue. The format is cell-based. The method, boiled down: (§2)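 Ba/F3-KDR cells (20000 per well) in phenol red-free RPMI-1640 with 10% FBS were exposed to compound for 24 hours at 37° C, 5% CO2. Alamar Blue (resazurin) was then added for 4 hours, and fluorescence was read at ex. 540 nm/em. 590 nm.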

Data set [6] has as its target FGFR3 (h) (Homo sapiens, UniProt P22607). The data set can be described thus: FGFR3 (enzymatic assay), TR-FRET. The format is biochemical. Particulars: average values if tested multiple times, read-out: FGFR 3 pIC50 (converted). The text has this:
Time-Resolved Fluorescence Resonance Energy Transfer (TR-FRET) signal (ex340 nm.

Data set [7] concerns the target T2, Ba/F3-FGFR1-transfected cells (Homo sapiens, UniProt P11362).
T2 construct: BAF3-FGFR1 (MIN IL3) pIC50; other: minus IL3
The data set can be described thus: Ba/F3-FGFR1 (minus IL3) cellular proliferation assay, Alamar Blue. The format is cell-based. The method, boiled down:
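Ba/F3 cells transfected with FGFR1 (20000 cells/well) were plated onto compound in phenol red-free RPMI-1640 with 10% FBS, 2 mM L-glutamine and gentamycin, then kept 24 h at 37 °C, 5% CO2. Alamar Blue (resazurin) was added for 4 h and fluorescence read at ex 540/em 590 nm.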

The target in data set [8] is FGFR2 (h) (Homo sapiens, UniProt P21802). The data set can be described thus: FGFR2 (enzymatic assay), TR-FRET. The format is biochemical. Particulars: enzymatic assay; average values if tested multiple times; read-out: FGFR 2 pIC50 (converted). The essentials: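 Human FGFR2 (150 ng/ml) was incubated with 500 nM Btn-Flt3 substrate and 0.4 μM ATP in 50 mM HEPES pH 7.5, 6 mM MnCl2, 1 mM DTT, 0.1 mM Na3VO4, 0.01% Triton-X-100. Compound was present at 1% DMSO final.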

Data set [9] deals with T3, Ba/F3-FGFR3-transfected cells (Homo sapiens, UniProt P22607).
T3 construct: BAF3-FGFR3 (MIN IL3) pIC50; other: minus IL3
Description: Ba/F3-FGFR3 (minus IL3) cellular proliferation assay, Alamar Blue. It is filed as cell-based. The method, boiled down: as §1
In general terms: Alamar Blue is a resazurin reagent that responds to reducing activity.

Data set [10] deals with FGFR1 (h) (Homo sapiens, UniProt P11362). The data set can be described thus: FGFR1 (enzymatic assay), TR-FRET. The format is biochemical. Particulars: average values if tested multiple times, read-out: FGFR 1 pIC50 (converted).
Chain of FGFR1 (h) (P11362 22-822): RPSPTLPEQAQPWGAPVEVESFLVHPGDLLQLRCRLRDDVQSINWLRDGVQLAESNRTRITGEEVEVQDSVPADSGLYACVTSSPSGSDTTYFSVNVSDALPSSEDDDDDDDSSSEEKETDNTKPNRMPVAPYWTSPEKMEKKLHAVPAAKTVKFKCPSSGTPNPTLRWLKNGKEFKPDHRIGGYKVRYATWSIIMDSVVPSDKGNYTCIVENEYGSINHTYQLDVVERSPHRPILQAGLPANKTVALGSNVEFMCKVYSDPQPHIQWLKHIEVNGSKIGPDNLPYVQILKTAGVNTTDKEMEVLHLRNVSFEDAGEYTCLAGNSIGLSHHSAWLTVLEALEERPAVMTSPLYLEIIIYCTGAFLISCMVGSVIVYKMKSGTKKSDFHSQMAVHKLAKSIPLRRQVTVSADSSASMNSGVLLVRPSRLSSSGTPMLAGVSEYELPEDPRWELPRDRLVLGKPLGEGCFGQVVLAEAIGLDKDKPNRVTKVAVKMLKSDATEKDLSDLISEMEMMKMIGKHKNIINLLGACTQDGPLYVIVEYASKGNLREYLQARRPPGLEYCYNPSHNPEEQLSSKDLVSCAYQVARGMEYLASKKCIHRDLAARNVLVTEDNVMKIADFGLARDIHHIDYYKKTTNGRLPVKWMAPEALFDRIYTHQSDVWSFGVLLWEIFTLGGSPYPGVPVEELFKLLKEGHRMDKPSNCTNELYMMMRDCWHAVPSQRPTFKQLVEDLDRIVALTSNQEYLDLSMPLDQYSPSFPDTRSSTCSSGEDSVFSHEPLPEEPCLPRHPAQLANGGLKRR
For data set [11], the target named is Ba/F3-FGFR4-transfected cells (Homo sapiens, UniProt P22455). Description: Ba/F3-FGFR4 cellular proliferation assay, Alamar Blue. The format is cell-based. The essentials: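 Compounds in DMSO were dispensed before 20000 Ba/F3-FGFR4-transfected cells per well were added in phenol red free RPMI-1640 with 10% FBS, 2 mM L-Glutamine. After 24 hours at 37° C and 5% CO2, Alamar Blue was added for 4 hours and fluorescence read (ex. 540 nm, em. 590 nm).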

Data set [12] relates to Ba/F3-KDR-transfected cells. Description: Ba/F3-KDR (plus IL3) cellular proliferation assay, counterscreen with 10 ng/ml murine IL3. The format is cell-based. The conditions noted are these: plus IL3 (10 ng/ml murine IL3, counterscreen). The essentials:
as §2

[13] abbreviates: average values if tested multiple times.

Counter-ions that a name gives are not always drawn. Like-named read-outs stand apart in the source and are kept apart here.

T2 sequence (P11362 whole entry, change not shown): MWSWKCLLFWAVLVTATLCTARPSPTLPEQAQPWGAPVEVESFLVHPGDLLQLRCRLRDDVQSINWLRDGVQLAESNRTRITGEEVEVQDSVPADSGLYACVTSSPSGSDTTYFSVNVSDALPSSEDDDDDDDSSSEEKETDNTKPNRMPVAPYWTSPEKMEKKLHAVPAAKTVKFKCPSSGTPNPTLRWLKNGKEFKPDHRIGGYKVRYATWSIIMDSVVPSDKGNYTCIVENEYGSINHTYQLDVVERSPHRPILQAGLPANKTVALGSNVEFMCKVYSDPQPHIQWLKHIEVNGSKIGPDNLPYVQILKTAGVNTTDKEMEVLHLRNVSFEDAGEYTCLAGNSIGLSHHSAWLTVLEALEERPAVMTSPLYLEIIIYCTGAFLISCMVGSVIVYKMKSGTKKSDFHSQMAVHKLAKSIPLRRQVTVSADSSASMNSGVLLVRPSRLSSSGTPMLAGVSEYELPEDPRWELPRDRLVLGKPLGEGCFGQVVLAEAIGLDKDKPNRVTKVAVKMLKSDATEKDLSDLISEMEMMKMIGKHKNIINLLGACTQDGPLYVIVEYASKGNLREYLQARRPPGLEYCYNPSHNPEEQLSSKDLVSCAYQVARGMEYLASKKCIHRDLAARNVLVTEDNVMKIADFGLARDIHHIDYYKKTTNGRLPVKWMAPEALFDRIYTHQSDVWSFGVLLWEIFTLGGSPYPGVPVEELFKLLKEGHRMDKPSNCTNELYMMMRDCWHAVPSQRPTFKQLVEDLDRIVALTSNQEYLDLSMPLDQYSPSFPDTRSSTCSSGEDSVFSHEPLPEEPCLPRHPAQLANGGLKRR
Chain of FGFR3 (h) (P22607 23-806): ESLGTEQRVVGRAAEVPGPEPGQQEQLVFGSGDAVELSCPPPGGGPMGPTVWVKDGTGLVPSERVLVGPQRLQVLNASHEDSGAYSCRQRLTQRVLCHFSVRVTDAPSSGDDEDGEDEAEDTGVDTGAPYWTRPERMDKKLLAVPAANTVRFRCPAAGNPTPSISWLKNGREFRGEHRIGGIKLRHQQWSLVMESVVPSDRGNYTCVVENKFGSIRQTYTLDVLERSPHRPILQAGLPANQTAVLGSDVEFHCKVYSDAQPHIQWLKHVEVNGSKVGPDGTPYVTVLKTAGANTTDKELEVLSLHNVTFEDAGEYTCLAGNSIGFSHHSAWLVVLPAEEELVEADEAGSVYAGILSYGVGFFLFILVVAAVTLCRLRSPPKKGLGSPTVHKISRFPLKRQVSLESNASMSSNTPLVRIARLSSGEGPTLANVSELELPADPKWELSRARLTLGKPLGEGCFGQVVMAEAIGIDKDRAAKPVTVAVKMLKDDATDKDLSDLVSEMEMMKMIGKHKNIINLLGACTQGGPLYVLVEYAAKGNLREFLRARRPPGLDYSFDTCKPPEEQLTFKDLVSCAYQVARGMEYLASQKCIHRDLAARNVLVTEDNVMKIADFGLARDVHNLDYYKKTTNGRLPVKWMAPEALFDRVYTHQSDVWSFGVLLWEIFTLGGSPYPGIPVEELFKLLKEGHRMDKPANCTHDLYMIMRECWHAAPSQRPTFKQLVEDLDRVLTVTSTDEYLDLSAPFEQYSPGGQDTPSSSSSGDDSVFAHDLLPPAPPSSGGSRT

Consider `CNCCn1/c(=N/c2c(F)c(OC)cc(OC)c2F)ccc2ncc(-c3cnn(C)c3)nc21` [Compound 4], for which the melting point (as a rule, the temperature of the solid-liquid transition) was determined as 174 °C. Also, in [1], the IC50 is more than 10000 nM. In data set [2], this compound showed an IC50 of 7.94 nM. Also, the IC50 in data set [3] (setting [13]) is 63.1 nM. For the same compound, the IC50 in data set [4] is more than 10000 nM. Further, the “BAF3-KDR (MIN IL3) pIC50” value in data set [5] was found to be 5.4. Besides, in data set [6], the IC50 was 3.16 nM. The “BAF3-FGFR1 (MIN IL3) pIC50” value in data set [7] turned out to be 7.3. Also, the IC50 in data set [8] was 3.98 nM. Moreover, the “BAF3-FGFR3 (MIN IL3) pIC50” value in data set [9] is 6.9. For the same compound, the IC50 in data set [10] is 1.26 nM.
On to `COc1cc(OC)c(F)c(/N=c2\ccc3ncc(-c4cnn(C)c4)nc3n2CC2CCC(=O)N2)c1F` (stereo not shown) [Compound 47], for which the melting point came to 169 °C. Moreover, the “BAF3-FGFR4 pIC50” value in data set [11] is given as 6.70. For the same compound, the “BAF3-FGFR3 (PLUS IL3) pIC50” value in [1] is less than 5. For the same compound, in data set [2], the IC50 is 1.45 nM. In data set [3] (setting [13]), the IC50 was 12.6 nM. Besides, in data set [4], the “BAF3-FGFR1 (PLUS IL3) pIC50” value is given as less than 5. Further, the “BAF3-KDR (MIN IL3) pIC50” value in data set [5] is given as 6.28. Besides, the IC50 in [6] was approximately 0.933 nM. For the same compound, in data set [12], the “BAF3-KDR (PLUS IL3) pIC50” value is recorded as less than 5. Besides, the “BAF3-FGFR1 (MIN IL3) pIC50” value in [7] is 7.86. In data set [8], the IC50 was 1.41 nM. Also, in [9], the “BAF3-FGFR3 (MIN IL3) pIC50” value is reported as approximately 7.76. In data set [10], the IC50 is 0.661 nM.
`COc1cc(OC)cc(N(CCNC(C)=O)c2ccc3ncc(-c4cnn(C)c4)nc3n2)c1` [Compound 235] displayed a melting point of 193 °C. Moreover, the IC50 in data set [1] was more than 10000 nM. The IC50 in data set [3] was 79.4 nM. In addition, in data set [4], the IC50 is more than 10000 nM. The “BAF3-KDR (MIN IL3) pIC50” value in [5] was found to be 5.62. The IC50 in data set [12] (read-out: BAF3-KDR (PLUS IL3) pIC50 (converted)) was more than 10000 nM.
The compound `COc1cc(OC)c(F)c(/N=c2\ccc3ncc(-c4cnn(C)c4)nc3n2CCCO)c1F` (single isomer, unassigned) [Compound 17] registered a melting point of 206 °C. Also, the IC50 in data set [1] is more than 10000 nM. Also, in data set [2], the IC50 is 0.501 nM. For the same compound, the IC50 in data set [3] (setting [13]) was 3.98 nM. Besides, the IC50 in data set [4] was more than 10000 nM. Further, in data set [5], the “BAF3-KDR (MIN IL3) pIC50” value came to 6.8. Also, in data set [6], the IC50 is 0.398 nM. In [7], the “BAF3-FGFR1 (MIN IL3) pIC50” value worked out at 8.7. Besides, in data set [8], the IC50 is 1.26 nM. Moreover, in data set [9], the “BAF3-FGFR3 (MIN IL3) pIC50” value is recorded as 8.6. Further, in data set [10], the IC50 was 0.251 nM.
Consider `COc1cc(OC)cc(N(CC2CCC(=O)N2)c2ccc3ncc(-c4cnn(C)c4)nc3n2)c1` (stereo not shown) [Compound 54], for which the melting point is 125 °C. Moreover, the “BAF3-FGFR4 pIC50” value in data set [11] is on record as 6.05. For the same compound, in [1], the “BAF3-FGFR3 (PLUS IL3) pIC50” value is reported as less than 5. Besides, the IC50 in data set [2] is 17.4 nM. The IC50 in [3] (setting [13]) was 66.1 nM. For the same compound, the “BAF3-FGFR1 (PLUS IL3) pIC50” value in data set [4] is less than 5. Further, the “BAF3-KDR (MIN IL3) pIC50” value in data set [5] worked out at 5.39. In addition, the IC50 in data set [6] is 3.02 nM. Besides, the “BAF3-KDR (PLUS IL3) pIC50” value in [12] is listed as less than 5. For the same compound, the “BAF3-FGFR1 (MIN IL3) pIC50” value in data set [7] came to 6.64. Besides, the IC50 in data set [8] is 4.9 nM. In addition, in data set [9], the “BAF3-FGFR3 (MIN IL3) pIC50” value was found to be 6.83. In addition, in [10], the IC50 was 6.76 nM.
With `COc1cc(OC)cc(N(CCN2CCOCC2)c2ccc3ncc(-c4cnn(C)c4)nc3n2)c1` (as salt: hydrochloride) (hydrate or solvate) [Compound 146], the melting point was found to be 143 °C.
